Laboratory results from patent US8835469B2 (Cadila Healthcare Limited, priority 2009, dated 2014).

How the values were obtained:
glucokinase (GK) enzyme = target: T1, glucokinase (GK) enzyme (Homo sapiens, UniProt P35557); assay: In-vitro glucokinase (GK) activation assay (coupled with glucose-6-phosphate dehydrogenase, absorbance at 340); format: biochemical; details: glucose 2.5 mM; for activity at 0.1 µM / activity at 1 µM / activity at 5 µM / activity at 10 µM: read-out: % of GK activity wrt DMSO; for EC50: GK enzyme 0.2 units, ATP 1 mM
T1 sequence (P35557 1-465): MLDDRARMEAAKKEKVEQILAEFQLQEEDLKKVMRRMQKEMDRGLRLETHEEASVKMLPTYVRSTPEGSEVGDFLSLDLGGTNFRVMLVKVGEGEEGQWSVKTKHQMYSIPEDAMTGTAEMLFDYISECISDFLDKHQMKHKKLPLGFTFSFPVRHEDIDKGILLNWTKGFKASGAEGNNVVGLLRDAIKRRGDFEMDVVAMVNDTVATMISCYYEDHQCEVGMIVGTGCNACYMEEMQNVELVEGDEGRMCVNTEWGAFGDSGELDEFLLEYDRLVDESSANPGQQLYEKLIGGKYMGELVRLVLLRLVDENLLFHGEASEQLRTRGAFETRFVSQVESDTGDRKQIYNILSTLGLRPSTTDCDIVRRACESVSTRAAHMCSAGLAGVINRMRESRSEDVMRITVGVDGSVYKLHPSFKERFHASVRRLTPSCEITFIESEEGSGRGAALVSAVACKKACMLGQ
Experimental: The compound of the invention was incubated with glucokinase (GK) enzyme (0.2 units) for 10 minutes in assay buffer at 26° C. After incubation, addition of glucose-6-phosphate dehydrogenase (2.5 units), ATP (1 mM) and glucose (2.5 mM). Absorbance is measured at 340 nm for 15 minutes with 10 second interval using UV transparent plate in kinetic mode on Spectramax-190 at 30° C.

Male C57 mice = assay: Oral glucose tolerance test (OGTT), overnight fasted; format: in vivo; details: for % change in glucose levels Vs Control: treated at −30 min, oral glucose load 3 g/kg at 0 min; for % change in glucose levels Vs Control, Mean: Mean over the time points, oral glucose load 3 g/kg
Experimental: Effect of Glucokinase Activators (GKAs) of the Present Invention on Glucose Reduction Determined by Oral Glucose Tolerence Test (OGTT):
Male C57 mice, aged 8-10 weeks were fasted overnight and subjected to the treatment of selected GK activator at time denoted as −30 min. At time 0 min, mice were given oral glucose load of 3 g/kg, and the glucose excursion was observed upto 120 min. The percentage change against the change in glucose levels of control are mentioned in the table 2.

Compound | activity at 0.1 µM (glucokinase (GK) enzyme; 0.1 uM compound) [%] | activity at 1 µM (glucokinase (GK) enzyme; 1 uM compound) [%] | activity at 5 µM (glucokinase (GK) enzyme; 5 uM compound) [%] | activity at 10 µM (glucokinase (GK) enzyme; 10 uM compound) [%] | EC50 (glucokinase (GK) enzyme) [nM] | % change in glucose levels Vs Control (Male C57 mice; 0 min Vs −30 min) [%] | % change in glucose levels Vs Control (Male C57 mice; 30 min Vs −30 min) [%] | % change in glucose levels Vs Control (Male C57 mice; 60 min Vs −30 min) [%] | % change in glucose levels Vs Control (Male C57 mice; 120 min Vs −30 min) [%] | % change in glucose levels Vs Control, Mean (Male C57 mice) [%] | % of GK activity wrt DMSO (glucokinase (GK) enzyme; 0.1 uM compound) [%] | % of GK activity wrt DMSO (glucokinase (GK) enzyme; 1 uM compound) [%] | % of GK activity wrt DMSO (glucokinase (GK) enzyme; 5 uM compound) [%] | % of GK activity wrt DMSO (glucokinase (GK) enzyme; 10 uM compound) [%]
Cc1nnc(-c2ccc(Oc3cc(OC4CCN(C)C4=O)cc(C(=O)Nc4nccs4)c3)cc2)o1 (centres unmarked) [Example 1, 3-(4-(5-Methyl-1,3,4-oxadiazol-2-yl)phenoxy)-5-(1-methyl-2-oxopyrrolidin-3-yloxy)-N-(thiazol-2-yl)benzamide] | 276 | 309 | 316 | 309 | 21 | −32.7 ± 2.8 | 3.3 ± 9.7 | −39.5 ± 7.0 | −24.3 ± 9.0 | −23.3 | – | – | – | –
Cc1nnc(-c2ccc(Oc3cc(OC4CCN(C)C4=O)cc(C(=O)Nc4ncc(C)s4)c3)cc2)o1 (centres unmarked) [Example 2, 3-(4-(5-Methyl-1,3,4-oxadiazol-2-yl)phenoxy)-5-(1-methyl-2-oxopyrrolidin-3-yloxy)-N-(5-methylthiazol-2-yl)benzamide] | 205 | 227 | 233 | 236 | 40 | −34.5 ± 3.2 | −13.5 ± 8.8 | −49.6 ± 11.2 | −53.2 ± 3.1 | −37.7 | – | – | – | –
CCOC(=O)Cc1csc(NC(=O)c2cc(Oc3ccc(-c4nnc(C)o4)cc3)cc(OC3CCN(C)C3=O)c2)n1 (centres unmarked) [Example 3] | 186 | 284 | 312 | 316 | 196 | −18.8 ± 5.8 | −4.1 ± 6.0 | −3.9 ± 4.3 | −15.8 ± 3.7 | −10.6 | – | – | – | –
Cc1nnc(-c2ccc(Oc3cc(OC4CCN(C)C4=O)cc(C(=O)Nc4nc(CC(=O)O)cs4)c3)cc2)o1 (centres unmarked) [Example 4, 2-(2-(3-(4-(5-Methyl-1,3,4-oxadiazol-2-yl)phenoxy)-5-((1-methyl-2-oxopyrrolidin-3-yl)oxy)benzamido)thiazol-4-yl)acetic acid] | 148 | 273 | 330 | 322 | 320 | −23.3 ± 3.1 | −22.1 ± 6.1 | −21.8 ± 5.9 | −16.7 ± 5.9 | −21.0 | – | – | – | –
Cc1csc(NC(=O)c2cc(Oc3ccc(-c4nnc(C)o4)cc3)cc(OC3CCN(C)C3=O)c2)n1 (centres unmarked) [Example 13, 3-(4-(5-Methyl-1,3,4-oxadiazol-2-yl)phenoxy)-5-(1-methyl-2-oxopyrrolidin-3-yloxy)-N-(4-methylthiazol-2-yl)benzamide] | 234 | 302 | 320 | 318 | 74 | −38.7 ± 3.5 | −34.5 ± 9.3 | −48.2 ± 7.5 | −60.5 ± 4.5 | −45.5 | – | – | – | –
Cc1nnc(-c2ccc(Oc3cc(OC4CCN(C5CCCCC5)C4=O)cc(C(=O)Nc4nccs4)c3)cc2)o1 (centres unmarked) [Example 36, 3((1-Cyclohexyl-2-oxopyrrolidin-3-yl)oxy)-5-(4-(5-methyl-1,3,4-oxadiazol-2-yl)phenoxy)-N-(thiazol-2-yl)benzamide] | 133 | 177 | 254 | 225 | – | – | – | – | – | – | – | – | – | –
Cc1nnc(-c2ccc(Oc3cc(OC4CCN(C)C4=O)cc(C(=O)Nc4nc(-c5ccccc5)cs4)c3)cc2)o1 (centres unmarked) [Example 37, 3-(4-(5-Methyl-1,3,4-oxadiazol-2-yl)phenoxy)-5-((1-methyl-2-oxopyrrolidin-3-yl)oxy)-N-(4-phenylthiazol-2-yl)benzamide] | 107 | 151 | 290 | 329 | – | 11.9 ± 8.2 | −26.5 ± 12.8 | −43.5 ± 3.8 | −24.9 ± 5.3 | −17.0 | – | – | – | –
Cc1nnc(-c2ccc(Oc3cc(OC4CCN(C)C4=O)cc(C(=O)Nc4ncc(Br)s4)c3)cc2)o1 (centres unmarked) [Example 38, N-(5-Bromothiazol-2-yl)-3-(4-(5-methyl-1,3,4-oxadiazol-2-yl)phenoxy)-5-((1-methyl-2-oxopyrrolidin-3-yl)oxy)benzamide] | 150 | 205 | 252 | 256 | – | – | – | – | – | – | – | – | – | –
Cc1nnc(-c2ccc(Oc3cc(OC4CCN(C)C4=O)cc(C(=O)Nc4ncccc4O)c3)cc2)o1 (centres unmarked) [Example 39, N-(3-hydroxypyridin-2-yl)-3-(4-(5-methyl-1,3,4-oxadiazol-2-yl)phenoxy)-5-((1-methyl-2-oxopyrrolidin-3-yl)oxy)benzamide] | 151 | 179 | 215 | 262 | – | – | – | – | – | – | – | – | – | –
Cc1nnc(-c2ccc(Oc3cc(O[C@H]4CCN(C)C4=O)cc(C(=O)Nc4nccs4)c3)cc2)o1 [Example 68, (S)-3-(4-(5-Methyl-1,3,4-oxadiazol-2-yl)phenoxy)-5-((1-methyl-2-oxopyrrolidin-3-yl)oxy)-N-(thiazol-2-yl)benzamide] | 144 | 238 | 255 | 271 | 34 | −46.7 ± 0.8 | −25.6 ± 7.2 | −51.5 ± 4.9 | −58.2 ± 6.7 | −46.6 | – | – | – | –
Cc1nnc(-c2ccc(Oc3cc(O[C@H]4CCN(C)C4=O)cc(C(=O)Nc4ncc(C#N)s4)c3)cc2)o1 [Example 69, (S)-(5-cyanothiazol-2-yl)-3-(4-(5-methyl-1,3,4-oxadiazol-2-yl)phenoxy)-5-((1-methyl-2-oxopyrrolidin-3-yl)oxy)benzamide] | – | – | – | – | – | −58.6 ± 5.6 | −91.2 ± 1.3 | −84.4 ± 0.9 | −72.9 ± 5.6 | −75.2 | 116.7 | 170.1 | 249.2 | 255.3
Cc1nnc(-c2ccc(Oc3cc(O[C@@H]4CCN(C)C4=O)cc(C(=O)Nc4nccs4)c3)cc2)o1 [Example 77, (R)-3-(4-(5-methyl-1,3,4-oxadiazol-2-yl)phenoxy)-5-((1-methyl-2-oxopyrrolidin-3-yl)oxy)-N-(thiazol-2-yl)benzamide] | 112 | 141 | 230 | 261 | 356 | −4.8 ± 7.5 | −15.1 ± 6.6 | −13.9 ± 7.3 | −22.0 ± 3.3 | −11.2 | – | – | – | –
(S)-3-(4-(5-methyl-1,3,4-oxadiazol-2-yl)phenoxy)-5-((2-oxopyrrolidin-3-yl)oxy)-N-(thiazol-2-yl)benzamide [Example 70] | – | – | – | – | – | – | – | – | – | – | 238.3 | 315.1 | 318.4 | 325.6
